Experimental data as given in patent US10815244B2, “Isoidide derivatives and methods of making and using same” (Rutgers, the State University of New Jersey, priority 2015, dated 2020).

The compounds below were run against EGFR kinase (Homo sapiens (Human), UniProt P00533) (assay: EGFR kinase activity, luminescent ATP/ADP detection assay). Conditions: purified EGFR kinase, 10 min incubation, luminescence ADP detection.
Format: biochemical
Experimental: Example RR: EGFR as a Drug Target Assay Conditions
The IC50s of the compounds on EGFR activity were determined using the Luminescent ATP/ADP detection assay system. Briefly, the assay method measures ADP formed from EGFR kinase activity using luminescence derived from ATP-Luciferase detection system. Purified EGFR kinase was incubated with different concentrations of test compound in the kinase reaction buffer for 10 min. The reaction was stopped by depleting the unused ATP in the kinase reaction buffer using the depletion buffer for 40 min. The levels of ADP generated during the kinase reaction was detected by measuring the luminescence using the Luciferase system.

Chain of EGFR kinase (P00533 25-1210): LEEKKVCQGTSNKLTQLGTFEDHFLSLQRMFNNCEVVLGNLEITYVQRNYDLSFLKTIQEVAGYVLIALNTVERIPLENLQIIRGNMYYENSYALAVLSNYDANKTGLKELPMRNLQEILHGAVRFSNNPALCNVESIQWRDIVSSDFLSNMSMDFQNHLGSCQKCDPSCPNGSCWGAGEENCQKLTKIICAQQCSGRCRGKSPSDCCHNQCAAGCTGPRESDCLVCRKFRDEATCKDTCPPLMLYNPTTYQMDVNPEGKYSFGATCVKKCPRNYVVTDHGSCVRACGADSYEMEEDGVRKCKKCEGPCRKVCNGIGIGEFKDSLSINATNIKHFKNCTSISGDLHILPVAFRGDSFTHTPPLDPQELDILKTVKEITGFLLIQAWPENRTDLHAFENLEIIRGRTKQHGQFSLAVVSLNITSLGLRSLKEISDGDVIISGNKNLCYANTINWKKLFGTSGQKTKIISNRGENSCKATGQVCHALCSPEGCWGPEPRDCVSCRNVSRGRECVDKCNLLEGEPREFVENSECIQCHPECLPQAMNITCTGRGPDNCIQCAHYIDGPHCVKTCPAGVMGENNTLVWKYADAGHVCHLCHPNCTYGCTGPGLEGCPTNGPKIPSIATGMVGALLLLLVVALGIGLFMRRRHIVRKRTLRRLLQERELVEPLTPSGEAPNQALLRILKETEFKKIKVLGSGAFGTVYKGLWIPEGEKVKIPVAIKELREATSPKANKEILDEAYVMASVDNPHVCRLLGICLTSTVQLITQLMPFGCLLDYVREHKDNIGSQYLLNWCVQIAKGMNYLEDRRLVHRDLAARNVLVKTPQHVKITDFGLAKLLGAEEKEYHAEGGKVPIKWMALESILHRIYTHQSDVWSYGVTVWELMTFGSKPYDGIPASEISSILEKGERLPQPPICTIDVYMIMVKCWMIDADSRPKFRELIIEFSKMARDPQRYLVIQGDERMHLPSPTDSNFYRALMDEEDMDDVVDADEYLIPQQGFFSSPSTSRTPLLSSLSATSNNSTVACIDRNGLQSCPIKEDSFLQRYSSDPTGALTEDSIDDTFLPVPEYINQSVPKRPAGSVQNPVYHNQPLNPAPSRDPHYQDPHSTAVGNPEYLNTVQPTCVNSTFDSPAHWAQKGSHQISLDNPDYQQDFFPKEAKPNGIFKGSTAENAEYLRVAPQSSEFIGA

Structure (SMILES) | IC50 | EGFR IC50
O[C@H]1CO[C@H]2[C@@H]1OC[C@@H]2Oc1ccc(Nc2ncnc3ccsc23)cc1Cl [Example U, (3S,3aR,6S,6aR)-6-[2-chloro-4-(thieno[3,2-d]pyrimidin-4-ylamino)phenoxy]-2,3,3a,5,6,6a-hexahydrofuro[3,2-b]furan-3-ol] | > 100 nM | 
O[C@H]1CO[C@H]2[C@@H]1OC[C@@H]2Oc1ccc(Nc2ccnc(Nc3ccc(O[C@H]4CO[C@H]5[C@@H]4OC[C@@H]5O)c(Cl)c3)n2)cc1Cl [Example W, (3S,3aR,6S,6aR)-6-[4-[[2-[4-[[(3S,3aR,6S,6aR)-3-hydroxy-2,3,3a,5,6,6a-hexahydrofuro[3,2-b]furan-6-yl]oxy]-3-chloro-anilino]pyrimidin-4-yl]amino]-2-chloro-phenoxy]-2,3,3a,5,6,6a-hexahydrofuro[3,2-b]furan-3-ol] |  | Inactive
COc1cc2ncnc(Nc3ccc(O[C@H]4CO[C@H]5[C@@H]4OC[C@@H]5OCc4ccccc4)c(Cl)c3)c2cc1OC [Example AA, N-[4-[[(3S,3aR,6S,6aR)-3-benzyloxy-2,3,3a,5,6,6a-hexahydrofuro[3,2-b]furan-6-yl]oxy]-3-chloro-phenyl]-6,7-dimethoxy-quinazolin-4-amine] | > 100 nM | 
O=C(O[C@H]1CO[C@H]2[C@@H]1OC[C@@H]2Oc1ccc(Nc2ncnc3ccsc23)cc1Cl)c1ccccc1 [Example EE, [(3S,3aR,6S,6aR)-3-[2-chloro-4-(thieno[3,2-d]pyrimidin-4-ylamino)phenoxy]-2,3,3a,5,6,6a-hexahydrofuro[3,2-b]furan-6-yl] benzoate] | > 500 nM | 
COc1cc2ncnc(Nc3ccc(O[C@H]4CO[C@H]5[C@@H]4OC[C@@H]5OC(=O)c4ccccc4)c(Cl)c3)c2cc1OC [Example DD, [(3S,3aR,6S,6aR)-3-[2-chloro-4-[(6,7-dimethoxyquinazolin-4-yl)amino]phenoxy]-2,3,3a,5,6,6a-hexahydrofuro[3,2-b]furan-6-yl] benzoate] | > 100 nM | 
COc1cc2ncnc(Nc3ccc(O[C@H]4CO[C@H]5[C@@H]4OC[C@@H]5OC(C)=O)c(Cl)c3)c2cc1OC [Example BB, [(3S,3aR,6S,6aR)-3-[2-chloro-4-[(6,7-dimethoxyquinazolin-4-yl)amino]phenoxy]-2,3,3a,5,6,6a-hexahydrofuro[3,2-b]furan-6-yl] acetate] | > 500 nM | 
COc1cc2ncnc(Nc3ccc(O[C@H]4CO[C@H]5[C@@H]4OC[C@@H]5O)c(Cl)c3)c2cc1OC [Example T, (3S,3aR,6S,6aR)-6-[2-chloro-4-[(6,7-dimethoxyquinazolin-4-yl)amino]phenoxy]-2,3,3a,5,6,6a-hexahydrofuro[3,2-b]furan-3-ol] | > 100 nM | 

The remaining lines, values ahead:

IC50 | EGFR IC50 | Structure (SMILES)
 | Inactive | CS(=O)(=O)N1CCC(Nc2nccc(O[C@H]3CO[C@H]4[C@@H]3OC[C@@H]4OC(=O)c3ccccc3)n2)CC1 [Example JJ, [(3S,3aR,6S,6aR)-3-[2-[(1-methylsulfonyl-4-piperidyl)amino]pyrimidin-4-yl]oxy-2,3,3a,5,6,6a-hexahydrofuro[3,2-b]furan-6-yl] benzoate]
 | Inactive | CC(=O)O[C@H]1CO[C@H]2[C@@H]1OC[C@@H]2Oc1ccnc(NC2CCN(S(C)(=O)=O)CC2)n1 [Example FF, [(3S,3aR,6S,6aR)-3-[2-[(1-methylsulfonyl-4-piperidyl)amino]pyrimidin-4-yl]oxy-2,3,3a,5,6,6a-hexahydrofuro[3,2-b]furan-6-yl] acetate]
 | Inactive | CC(=O)O[C@H]1CO[C@H]2[C@@H]1OC[C@@H]2Oc1ccnc(NCc2ccc(F)cc2)n1 [Example II, [(3S,3aR,6S,6aR)-3-[2-[(4-fluorophenyl)methylamino]pyrimidin-4-yl]oxy-2,3,3a,5,6,6a-hexahydrofuro[3,2-b]furan-6-yl] acetate]
> 500 nM |  | COc1cc2ncnc(Nc3ccc(O[C@H]4CO[C@H]5[C@@H]4OC[C@@H]5OC(C)=O)cc3)c2cc1OC [Example X, [(3S,3aR,6S,6aR)-3-[4-[(6,7-dimethoxyquinazolin-4-yl)amino]phenoxy]-2,3,3a,5,6,6a-hexahydrofuro[3,2-b]furan-6-yl] acetate]
> 500 nM |  | CC(=O)O[C@H]1CO[C@H]2[C@@H]1OC[C@@H]2Oc1ccc(Nc2ncnc3ccsc23)cc1Cl [Example CC, [(3S,3aR,6S,6aR)-3-[2-chloro-4-(thieno[3,2-d]pyrimidin-4-ylamino)phenoxy]-2,3,3a,5,6,6a-hexahydrofuro[3,2-b]furan-6-yl] acetate]
> 1000 nM |  | CC(=O)O[C@H]1CO[C@H]2[C@@H]1OC[C@@H]2Oc1ccc(Nc2ncnc3ccsc23)cc1 [Example Y, [(3S,3aR,6S,6aR)-3-[4-(thieno[3,2-d]pyrimidin-4-ylamino)phenoxy]-2,3,3a,5,6,6a-hexahydrofuro[3,2-b]furan-6-yl] acetate]
 | Inactive | CC(=O)O[C@H]1CO[C@H]2[C@@H]1OC[C@@H]2Oc1ccnc(NC2CCN(S(=O)(=O)c3ccc(C)cc3)CC2)n1 [Example GG, [(3S,3aR,6S,6aR)-3-[2-[(1-tolylsulfonyl-4-piperidyl)amino]pyrimidin-4-yl]oxy-2,3,3a,5,6,6a-hexahydrofuro[3,2-b]furan-6-yl] acetate]
